Measured values published in patent US20250368649A1, “TETRAHYDROPYRIDOPYRIMIDINE PAN-KRAS INHIBITORS” (Mirati Therapeutics, Inc., priority 2022, published 2025).

Assays:
[1] = biological target: KRas G12C (Homo sapiens, UniProt P01116, G12C); type: binding; details: for inhibition at 0.01 µM: single point, 10 nM compound, read-out: Binding to KRas (% inhibition at 10 nM) G12C; for IC50: TR-FRET displacement, read-out: Binding to KRas (IC50 nM) G12C
[2] = biological target: KRas Q61H (Homo sapiens, UniProt P01116, Q61H); test: KRas binding assay (TR-FRET displacement), KRas Q61H; details: for inhibition at 0.01 µM: single point, 10 nM compound; for IC50: TR-FRET displacement
Sequence of KRas Q61H (P01116 1-169 isoform P01116-2 Q61H): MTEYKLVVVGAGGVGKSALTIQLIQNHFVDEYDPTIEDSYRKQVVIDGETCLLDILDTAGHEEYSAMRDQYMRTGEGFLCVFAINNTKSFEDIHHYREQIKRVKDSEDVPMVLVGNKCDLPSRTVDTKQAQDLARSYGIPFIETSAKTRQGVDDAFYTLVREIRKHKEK

[3] = biological target: KRas G12D (Homo sapiens, UniProt P01116, G12D); test: biochemical; details: Binding to KRas (IC50 nM) G12D, TR-FRET displacement, KRas G12D
Sequence of KRas G12D (P01116 1-169 isoform P01116-2 G12D): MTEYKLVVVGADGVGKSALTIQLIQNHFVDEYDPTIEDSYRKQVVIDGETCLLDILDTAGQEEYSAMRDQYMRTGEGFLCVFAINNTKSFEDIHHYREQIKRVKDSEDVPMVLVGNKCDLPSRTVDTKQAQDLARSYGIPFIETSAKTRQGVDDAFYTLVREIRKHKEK

[4] = tested on: HCT116 cells; test: Inhibition of KRas-mediated phosphorylation of ERK (Cisbio HTRF pERK), HCT116 cells; type: cell-based; details: Homo sapiens, HCT-116, single point at 100 nM, 3 hrs compound incubation
[5] = biological target: KRas G12A (Homo sapiens, UniProt P01116, G12A); type: binding; details: for inhibition at 0.01 µM: single point, 10 nM compound, read-out: Binding to KRas (% inhibition at 10 nM) G12A; for IC50: TR-FRET displacement, read-out: Binding to KRas (IC50 nM) G12A
Sequence of KRas G12A (P01116 1-169 isoform P01116-2 G12A): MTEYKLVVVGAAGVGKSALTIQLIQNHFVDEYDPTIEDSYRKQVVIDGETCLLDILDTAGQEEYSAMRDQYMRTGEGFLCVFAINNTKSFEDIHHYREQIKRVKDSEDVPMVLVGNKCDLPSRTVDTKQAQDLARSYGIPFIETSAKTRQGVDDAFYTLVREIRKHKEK

[6] = tested on: H460 cells; test: Inhibition of KRas-mediated phosphorylation of ERK (Cisbio HTRF pERK), H460 cells; type: cell-based; details: Homo sapiens, NCI-H460, single point at 100 nM, 3 hrs compound incubation
[7] = tested on: H358 cells; test: Inhibition of KRas-mediated phosphorylation of ERK (Cisbio HTRF pERK), H358 cells; type: cell-based; details: Homo sapiens; for inhibition at 0.1 µM: NCI-H358, single point at 100 nM, 3 hrs compound incubation; for IC50: NCI-H358, 3 h, 3 hr compound incubation
[8] = tested on: H727 cells; test: Inhibition of KRas-mediated phosphorylation of ERK (Cisbio HTRF pERK), H727 cells; type: cell-based; details: Homo sapiens; for IC50: NCI-H727, 3 h, 3 hr compound incubation; for inhibition at 0.1 µM: NCI-H727, single point at 100 nM, 3 hrs compound incubation
[9] = biological target: KRas G13D (Homo sapiens, UniProt P01116, G13D); type: binding; details: for inhibition at 0.01 µM: single point, 10 nM compound, read-out: Binding to KRas (% inhibition at 10 nM) G13D; for IC50: TR-FRET displacement, read-out: Binding to KRas (IC50 nM) G13D
Sequence of KRas G13D (P01116 1-169 isoform P01116-2 G13D): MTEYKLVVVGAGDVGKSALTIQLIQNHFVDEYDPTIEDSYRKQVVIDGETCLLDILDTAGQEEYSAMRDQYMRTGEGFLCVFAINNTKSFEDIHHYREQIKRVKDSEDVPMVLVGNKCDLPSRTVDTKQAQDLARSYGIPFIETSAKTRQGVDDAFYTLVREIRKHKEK

[10] = biological target: KRas WT (Homo sapiens, UniProt P01116); test: KRas binding assay (TR-FRET displacement), KRas WT; details: for inhibition at 0.01 µM: single point, 10 nM compound; for IC50: TR-FRET displacement
Sequence of KRas WT (P01116 1-169 isoform P01116-2): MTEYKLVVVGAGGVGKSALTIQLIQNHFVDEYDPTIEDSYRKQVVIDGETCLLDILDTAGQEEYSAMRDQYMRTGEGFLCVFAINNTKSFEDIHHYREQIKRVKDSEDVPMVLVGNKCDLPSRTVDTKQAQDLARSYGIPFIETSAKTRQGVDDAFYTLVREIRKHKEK

[11] = biological target: KRas G12S (Homo sapiens, UniProt P01116, G12S); type: binding; details: for inhibition at 0.01 µM: single point, 10 nM compound, read-out: Binding to KRas (% inhibition at 10 nM) G12S; for IC50: TR-FRET displacement, read-out: Binding to KRas (IC50 nM) G12S
Sequence of KRas G12S (P01116 1-169 isoform P01116-2 G12S): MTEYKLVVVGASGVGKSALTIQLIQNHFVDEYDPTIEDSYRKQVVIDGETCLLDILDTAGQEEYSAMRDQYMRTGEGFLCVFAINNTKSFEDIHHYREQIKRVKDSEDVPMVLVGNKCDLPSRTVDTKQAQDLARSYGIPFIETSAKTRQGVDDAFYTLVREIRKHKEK

[12] = biological target: KRas G12V (Homo sapiens, UniProt P01116, G12V); test: biochemical; details: Binding to KRas (IC50 nM) G12V, TR-FRET displacement, KRas G12V
Sequence of KRas G12V (P01116 1-169 isoform P01116-2 G12V): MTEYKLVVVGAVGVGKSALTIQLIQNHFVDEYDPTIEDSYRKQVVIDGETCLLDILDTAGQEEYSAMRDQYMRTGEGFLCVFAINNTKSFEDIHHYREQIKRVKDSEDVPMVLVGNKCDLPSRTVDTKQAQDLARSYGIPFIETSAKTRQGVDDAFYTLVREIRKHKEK

[13] = tested on: ASPC1 cells; test: Inhibition of KRas-mediated phosphorylation of ERK (Cisbio HTRF pERK), ASPC1 cells; type: cell-based; details: Homo sapiens, AsPC-1 cells; for IC50: ASPC1, 3 h, 3 hr compound incubation; for inhibition at 0.1 µM: ASPC1, single point at 100 nM, 3 hrs compound incubation
[14] = biological target: KRas G12R (Homo sapiens, UniProt P01116, G12R); test: biochemical; details: Binding to KRas (IC50 nM) G12R, TR-FRET displacement, KRas G12R
Sequence of KRas G12R (P01116 1-169 isoform P01116-2 G12R): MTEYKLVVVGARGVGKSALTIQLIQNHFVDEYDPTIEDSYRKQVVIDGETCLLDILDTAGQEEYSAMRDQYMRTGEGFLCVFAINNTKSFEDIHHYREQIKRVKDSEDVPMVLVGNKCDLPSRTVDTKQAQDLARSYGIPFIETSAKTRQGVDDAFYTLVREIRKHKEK

[15] = tested on: A549 cells; test: Inhibition of KRas-mediated phosphorylation of ERK (Cisbio HTRF pERK), A549 cells; type: cell-based; details: Homo sapiens; for inhibition at 0.1 µM: single point at 100 nM, 3 hrs compound incubation; for IC50: A549, 3 h, 3 hr compound incubation
[16] = tested on: MKN1 cells; test: Inhibition of KRas-mediated phosphorylation of ERK (Cisbio HTRF pERK), MKN1 cells; type: cell-based; details: Homo sapiens
Method: (§1) Inhibition of KRas Phosphorylation of ERK (HTRF) by Exemplary Compounds of Formula (I) Cisbio HTRF Advanced pERK Assay Catalog #64AERPEH • Cells: MKN1, PSN1 • Procedure: • Day 1: Seed 6,000 cells/well -25 µl/well in 384-well white solid bottom plate; RPM1_10% FBS.

[17] = tested on: PSN1 cells; test: Inhibition of KRas-mediated phosphorylation of ERK (Cisbio HTRF pERK), PSN1 cells; type: cell-based; details: Homo sapiens, PSN1, 3 h, 3 hour compound incubation, Cisbio pERK HTRF
Method: as §1

[18] = MKN-1, 3 hr compound incubation

Sequence of KRas G12C (P01116 1-169 isoform P01116-2 G12C): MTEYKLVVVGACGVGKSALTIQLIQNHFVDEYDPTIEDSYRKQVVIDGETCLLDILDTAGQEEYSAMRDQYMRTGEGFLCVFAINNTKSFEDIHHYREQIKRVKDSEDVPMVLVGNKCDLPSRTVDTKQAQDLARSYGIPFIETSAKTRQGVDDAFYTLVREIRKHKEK

Compound	inhibition at 0.01 µM [1]	inhibition at 0.01 µM [2]	IC50 [3]	inhibition at 0.1 µM [4]	inhibition at 0.01 µM [5]	inhibition at 0.1 µM [6]	inhibition at 0.1 µM [7]	IC50 ([8]; Cisbio pERK HTRF)	inhibition at 0.1 µM [8]	inhibition at 0.01 µM [9]	inhibition at 0.01 µM [10]	inhibition at 0.01 µM [11]	IC50 [12]	IC50 ([13]; Cisbio pERK HTRF)	inhibition at 0.1 µM [13]	IC50 [14]	inhibition at 0.1 µM [15]	IC50 [1]	IC50 [10]	IC50 [11]	other results
CCc1c(F)ccc2cc(O)cc(N3CCc4c(nc(OC[C@@]56CCCN5C[C@H](F)C6)nc4N4CCCn5nc(C(=O)N6CC7CCC6CN7)cc5C4)C3)c12 (stereo partly drawn) [Example 264, 2,5-diazabicyclo[2.2.2]octan-2-yl(5-(7-(8-ethyl-7-fluoro-3-hydroxynaphthalen-1-yl)-2-(((2R,7aS)-2-fluorohexahydro-1H-pyrrolizin-7a-yl)methoxy)-5,6,7,8-tetrahydropyrido[3,4-d]pyrimidin-4-yl)-5,6,7,8-tetrahydro-4H-pyrazolo[1,5-a][1,4]diazepin-2-yl)methanone]	100%	98%	< 2 nM	-7%	95%	0%	43%	259 nM	22%	97%	96%	99%	< 2 nM	51 nM	34%	< 2 nM	15%	–	–	–	–
CCc1c(F)ccc2cc(O)cc(N3CCc4c(nc(OC[C@@]56CCCN5C[C@H](F)C6)nc4N4CCCn5nc(CN(C)C(=O)N(C)C)cc5C4)C3)c12 [Example 288, 1-((5-(7-(8-ethyl-7-fluoro-3-hydroxynaphthalen-1-yl)-2-(((2R,7aS)-2-fluorohexahydro-1H-pyrrolizin-7a-yl)methoxy)-5,6,7,8-tetrahydropyrido[3,4-d]pyrimidin-4-yl)-5,6,7,8-tetrahydro-4H-pyrazolo[1,5-a][1,4]diazepin-2-yl)methyl)-1,3,3-trimethylurea]	56%	33%	4 nM	17%	38%	3%	26%	189 nM	–	40%	38%	53%	6 nM	67 nM	–	9 nM	22%	–	–	–	–
CCc1c(F)ccc2cc(O)cc(N3CCc4c(nc(OC[C@@]56CCCN5C[C@H](F)C6)nc4N4CCCc5nc(C(=O)N(C)C)sc5C4)C3)c12 [Example 304, 5-(7-(8-ethyl-7-fluoro-3-hydroxynaphthalen-1-yl)-2-(((2R,7aS)-2-fluorohexahydro-1H-pyrrolizin-7a-yl)methoxy)-5,6,7,8-tetrahydropyrido[3,4-d]pyrimidin-4-yl)-N,N-dimethyl-5,6,7,8-tetrahydro-4H-thiazolo[5,4-c]azepine-2-carboxamide]	83%	73%	3 nM	-15%	63%	25%	43%	180 nM	–	72%	70%	77%	3 nM	54 nM	–	3 nM	33%	–	–	–	–
CCc1c(F)ccc2cc(O)cc(N3CCc4c(nc(OC[C@@]56CCCN5C[C@H](F)C6)nc4NCC4CNS(=O)(=O)N4)C3)c12 (stereo partly drawn) [Example 410, 3-(((7-(8-ethyl-7-fluoro-3-hydroxynaphthalen-1-yl)-2-(((2R,7aS)-2-fluorohexahydro-1H-pyrrolizin-7a-yl)methoxy)-5,6,7,8-tetrahydropyrido[3,4-d]pyrimidin-4-yl)amino)methyl)-1,2,5-thiadiazolidine 1,1-dioxide]	–	–	18 nM	–	–	–	–	1670 nM	–	–	–	–	4 nM	> 10000 nM	–	7 nM	–	–	–	–	IC50 ([16]; MKN-1, 3 hour compound incubation, Cisbio pERK HTRF): 217 nM; IC50 [17]: > 10000 nM
CC1(O)COCCN(c2nc(OCC34CCCN3CCC4)nc3c2CCN(c2cc(O)cc(Cl)c2C2CC2)C3)C1 (stereo not drawn) [Example 436, 4-(7-(3-chloro-2-cyclopropyl-5-hydroxyphenyl)-2-((tetrahydro-1H-pyrrolizin-7a(5H)-yl)methoxy)-5,6,7,8-tetrahydropyrido[3,4-d]pyrimidin-4-yl)-6-methyl-1,4-oxazepan-6-ol]	–	–	7 nM	5%	–	-4%	10%	2950 nM	12%	–	–	–	8 nM	1760 nM	-12%	17 nM	3%	8 nM	10 nM	10 nM	IC50 [2]: 10 nM; IC50 [5]: 11 nM; IC50 [9]: 10 nM
Cc1cc2[nH]ncc2c(N2CCc3c(nc(OCC4(CN(C)C)CC4)nc3N3CCC[C@]4(C3)NC(=O)NC4=O)C2)c1C [Example 462, (R)-7-(7-(5,6-dimethyl-1H-indazol-4-yl)-2-((1-((dimethylamino)methyl)cyclopropyl)methoxy)-5,6,7,8-tetrahydropyrido[3,4-d]pyrimidin-4-yl)-1,3,7-triazaspiro[4.5]decane-2,4-dione]	–	–	16 nM	3%	–	9%	1%	> 10000 nM	-8%	–	–	–	7 nM	> 10000 nM	-6%	7 nM	8%	6 nM	9 nM	9 nM	IC50 [2]: 10 nM; IC50 [5]: 10 nM; IC50 [9]: 9 nM
C=C1CN2CCCC2(COc2nc3c(c(N4CCCC5(CC(O)C5)C4)n2)CCN(c2cc(O)cc4ccc(F)c(CC)c24)C3)C1 (stereo not drawn) [Example 660, 6-(7-(8-ethyl-7-fluoro-3-hydroxynaphthalen-1-yl)-2-((2-methylenetetrahydro-1H-pyrrolizin-7a(5H)-yl)methoxy)-5,6,7,8-tetrahydropyrido[3,4-d]pyrimidin-4-yl)-6-azaspiro[3.5]nonan-2-ol]	–	–	3 nM	–	–	–	–	–	–	–	–	–	< 2 nM	–	–	–	–	< 2 nM	< 2 nM	< 2 nM	IC50 [7]: 25 nM; IC50 [8]: 204 nM; IC50 [16, 18]: 28.2 nM; IC50 [13]: 261 nM; IC50 [15]: 131 nM
C=C1CN2CCCC2(COc2nc3c(c(N4CC5CC(O)CC4C5)n2)CCN(c2cc(O)cc4ccc(F)c(CC)c24)C3)C1 (stereo not drawn) [Example 661, 6-(7-(8-ethyl-7-fluoro-3-hydroxynaphthalen-1-yl)-2-((2-methylenetetrahydro-1H-pyrrolizin-7a(5H)-yl)methoxy)-5,6,7,8-tetrahydropyrido[3,4-d]pyrimidin-4-yl)-6-azabicyclo[3.2.1]octan-3-ol]	–	–	143 nM	–	–	–	–	–	–	–	–	–	33 nM	–	–	–	–	32 nM	25 nM	21 nM	IC50 [7]: 864 nM; IC50 [8]: 4780 nM; IC50 [16, 18]: 1380 nM; IC50 [13]: > 10000 nM; IC50 [15]: 3800 nM
